The supplement of paper PMC3621838
± gives the standard deviation of the averaged measurements.

system: HEK293 NF-kB-luciferase reporter cells; assay: NF-kB luciferase reporter activity, robust Z-score vs plate median (robust Z-score (log luminescence)); higher = stronger NF-kB reporter activation; conditions: TNF 40 ng/mL; TNF treatment time 8.5 h; transfection time 72 h
Experimental: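 Primary screen of an Ambion Pre-miR miRNA mimic library (miRBase v8.0, 1.6 pmol/well, 384-well, duplicate) reverse-transfected into HEK293 cells stably expressing a 5x NF-kB firefly luciferase reporter. After 72 h the cells were treated with vehicle or TNF (40 ng/mL) for 8.5 h and luminescence was read (BriteLite). Raw luminescence was log-transformed and converted to a robust Z-score per plate: (x - plate median)/plate MAD. Sequence given is the mature miRNA strand of the double-stranded mimic.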

Point of comparison: UAUGUAAUAUGGUCCACAUCUU, “NF-kB luciferase reporter activity” value -1.342 ± 0.0044. Against it:
- CCUCUGGGCCCUUCCUCCAG — higher, -0.776 ± 0.1
- CGAAUGUUGCUCGGUGAACCCCU — lower, -2.17 ± 0.28
- CGCAUCCCCUAGGGCAUUGGUGU — higher, -0.479 ± 0.1
- CGGGUGGAUCACGAUGCAAUUU — lower, -2.0207 ± 0.0002
- CUACAAAGGGAAGCACUUUCUC — lower, -1.63 ± 0.19
- CUCCAGAGGGAAGUACUUUCU — within error, -1.33 ± 0.13
- CUCCAGAGGGAUGCACUUUCU — higher, -1.09 ± 0.051
- CUCCUGACUCCAGGUCCUGUGU — higher, 1.21 ± 0.14
- CUCUAGAGGGAAGCACUUUCU — higher, 0.664 ± 0.074
- CUCUAGAGGGAAGCACUUUCUCU — higher, 0.571 ± 0.12
- CUCUAGAGGGAAGCGCUUUCUGUU — higher, 0.579 ± 0.019
- CUCUUGAGGGAAGCACUUUCUGUU — higher, 0.555 ± 0.059
- CUGACCUAUGAAUUGACAGCC — higher, -0.0202 ± 0.12
- CUGCAAAGGGAAGCCCUUUCU — higher, -0.78 ± 0.054
- CUGGACUUAGGGUCAGAAGGCC — higher, 0.411 ± 0.022
- CUGGACUUGGAGUCAGAAGGCC — higher, -0.191 ± 0.11
- CUGGAUGGCUCCUCCAUGUCU — higher, -0.772 ± 0.095
- CUGGCCCUCUCUGCCCUUCCGU — higher, -0.112 ± 0.19
- CUGUGCGUGUGACAGCGGCUGA — lower, -2.3857 ± 0.00042
- CUUUCAGUCGGAUGUUUACAGC — higher, 1 ± 0.025
- CUUUUUGCGGUCUGGGCUUGC — higher, -0.65 ± 0.076
- GAAGGCGCUUCCCUUUAGAGC — higher, -0.47 ± 0.02
- GAAGGCGCUUCCCUUUGGAGU — higher, -0.567 ± 0.046
- GAAGUGCUUCGAUUUUGGGGUGU — higher, -0.363 ± 0.1
- GAAGUUGUUCGUGGUGGAUUCG — higher, -0.602 ± 0.087
- GAGGUUGUCCGUGGUGAGUUCG — lower, -2.08 ± 0.48
- GAGUGCCUUCUUUUGGAGCGU — higher, -0.822 ± 0.14
- GCAAAGCACACGGCCUGCAGAGA — higher, -0.658 ± 0.027
- GCACAUUACACGGUCGACCUCU — higher, 1.28 ± 0.042
- GCCCCUGGGCCUAUCCUAGAA — higher, 0.489 ± 0.046
- GCCUGCUGGGGUGGAACCUGG — higher, 0.451 ± 0.051
- GCUGCGCUUGGAUUUCGUCCCC — higher, 0.328 ± 0.013
- GGAGAAAUUAUCCUUGGUGUGU — higher, 0.256 ± 0.16
- GGUAGAUUCUCCUUCUAUGAG — higher, -1.25 ± 0.063
- GUCAACACUUGCUGGUUUCCUC — higher, -0.799 ± 0.029
- GUCAUACACGGCUCUCCUCUCU — higher, -1.19 ± 0.14
- GUGAAAUGUUUAGGACCACUAG — higher, 0.9884 ± 0.0031
- GUGCCGCCAUCUUUUGAGUGU — within error, -1.45 ± 0.12
- GUGCCUACUGAGCUGAUAUCAGU — higher, 0.339 ± 0.13
- GUGUCUUUUGCUCUGCAGUCA — higher, 0.168 ± 0.045
- GUGUGUGGAAAUGCUUCUGC — higher, -1.04 ± 0.03
- UAAACGUGGAUGUACUUGCUUU — higher, 0.83 ± 0.16
- UAACACUGUCUGGUAAAGAUGG — higher, 1.415 ± 0.012
- UAACAGUCUCCAGUCACGGCC — higher, -0.939 ± 0.1
- UAAGGCACCCUUCUGAGUAGA — lower, -3.27 ± 0.24
- UAAGUGCUUCCAUGUUUGAGUGU — higher, -0.618 ± 0.12
- UAAGUGCUUCCAUGUUUUGGUGA — higher, -0.801 ± 0.13
- UAAUACUGCCGGGUAAUGAUGG — higher, 1.06 ± 0.17
- UAAUACUGCCUGGUAAUGAUGAC — higher, 1.37 ± 0.22
- UAAUACUGUCUGGUAAAACCGU — higher, 0.65 ± 0.15
- UACAGUAUAGAUGAUGUACUAG — higher, 0.659 ± 0.17
- UACUCAGGAGAGUGGCAAUCACA — higher, -0.306 ± 0.029
- UAGCACCAUCUGAAAUCGGUU — lower, -2.2 ± 0.16
- UAGCAGCGGGAACAGUUCUGCAG — higher, 0.834 ± 0.021
- UAGGCAGUGUCAUUAGCUGAUUG — lower, -1.42 ± 0.053
- UAGGUAGUUUCCUGUUGUUGG — higher, -0.972 ± 0.18
- UAUACAAGGGCAAGCUCUCUGU — higher, -1.11 ± 0.035
- UAUGGCUUUUCAUUCCUAUGUG — higher, -0.369 ± 0.0092
- UAUGUGCCUUUGGACUACAUCG — higher, -1.23 ± 0.037
- UAUGUGGGAUGGUAAACCGCUU — higher, -1.21 ± 0.026
- UCAAGAGCAAUAACGAAAAAUGU — higher, 1.08 ± 0.015
- UCACAGUGAACCGGUCUCUUUC — higher, 0.0486 ± 0.083
- UCACUCCUCUCCUCCCGUCUUCU — higher, 1.87 ± 0.1
- UCAGGCUCAGUCCCCUCCCGAU — higher, -0.227 ± 0.1
- UCAGUCUCAUCUGCAAAGAAG — higher, 1.58 ± 0.083
- UCAGUGCAUCACAGAACUUUGU — higher, 0.0758 ± 0.04
- UCAGUGCAUGACAGAACUUGGG — higher, 0.0929 ± 0.021
- UCCAGCAUCAGUGAUUUUGUUGA — higher, 0.858 ± 0.14
- UCCAGCUCCUAUAUGAUGCCUUU — higher, -0.188 ± 0.11
- UCCCUGAGACCCUUUAACCUGUG — higher, 1.32 ± 0.15
- UCCCUGUCCUCCAGGAGCUCA — higher, 0.69 ± 0.39
- UCCGUCUCAGUUACUUUAUAGCC — higher, 0.334 ± 0.055
- UCCUGUACUGAGCUGCCCCGAG — higher, 1.15 ± 0.17
- UCGGGGAUCAUCAUGUCACGAG — higher, 0.339 ± 0.01
- UCGUGCAUCCCUUUAGAGUGUU — higher, 1.07 ± 0.079
- UCUACAAAGGGAAGCCCUUUCUG — higher, 0.879 ± 0.11
- UCUACAGUGCACGUGUCU — higher, -0.417 ± 0.031
- UCUCACACAGAAAUCGCACCCGUC — higher, 0.598 ± 0.025
- UCUCCCAACCCUUGUACCAGUG — higher, 1.18 ± 0.046
- UCUCUGGAGGGAAGCACUUUCUG — higher, -0.521 ± 0.11
- UCUGCAAAGGGAAGCCCUUU — higher, 0.788 ± 0.045
- UCUGGCUCCGUGUCUUCACUCC — the same, -1.34 ± 0.046
- UCUUGGAGUAGGUCAUUGGGUGG — higher, 0.913 ± 0.027
- UGAAACAUACACGGGAAACCUCUU — higher, -0.403 ± 0.11
- UGAAGGUCUACUGUGUGCCAG — within error, -1.55 ± 0.32
- UGAGAACUGAAUUCCAUAGGCU — higher, 0.439 ± 0.12
- UGAGGUAGGAGGUUGUAUAGU — higher, -0.881 ± 0.37
